From the NIST ThermoML archive (doi:10.1021/acs.jced.8b00692)
Numbers after ± are expanded uncertainties.

Test: xn = mol fraction of the nth substance listed
Conditions: 102 kPa, Liquid; for viscosity: Concentric cylinders viscometry; for speed of sound: Frequency=3 MHz, Single path-length method; for mass density: Vibrating tube method

CCCCCCC1CCCCC1 [hexylcyclohexane] + CCCCCCCCCCCCCCCC
Conditions	mass density [kg/m3]	speed of sound [m/s]	viscosity [mPa·s]
293.15 K, x1 = 0.1003	775.83 ± 0.81	1357.1 ± 0.7	3.35 ± 0.03
293.15 K, x1 = 0.2002	778.43 ± 0.81	1356.8 ± 0.7	3.21 ± 0.02
293.15 K, x1 = 0.2996	781.19 ± 0.81	1356.9 ± 0.8	3.09 ± 0.02
293.15 K, x1 = 0.4192	784.77 ± 0.81	1357 ± 0.9	2.93 ± 0.02
293.15 K, x1 = 0.5004	787.39 ± 0.82	1357.1 ± 0.9	2.82 ± 0.02
293.15 K, x1 = 0.603	790.94 ± 0.82	1357.4 ± 1	2.7 ± 0.02
293.15 K, x1 = 0.8003	798.59 ± 0.83	1358.6 ± 1.2	2.44 ± 0.02
293.15 K, x1 = 1	807.71 ± 0.84	1361 ± 1.3	2.2 ± 0.02
303.15 K, x1 = 0.1003	768.88 ± 0.81	1319.8 ± 0.7	2.66 ± 0.02
303.15 K, x1 = 0.2002	771.48 ± 0.81	1319.5 ± 0.7	2.57 ± 0.02
303.15 K, x1 = 0.2996	774.23 ± 0.81	1319.6 ± 0.8	2.47 ± 0.02
303.15 K, x1 = 0.4192	777.8 ± 0.81	1319.6 ± 0.9	2.36 ± 0.02
303.15 K, x1 = 0.5004	780.41 ± 0.82	1319.7 ± 0.9	2.28 ± 0.02
303.15 K, x1 = 0.603	783.93 ± 0.82	1319.8 ± 1	2.19 ± 0.02
303.15 K, x1 = 0.8003	791.52 ± 0.83	1320.7 ± 1.2	2 ± 0.02
303.15 K, x1 = 1	800.56 ± 0.84	1322.1 ± 1.3	1.81 ± 0.02
313.15 K, x1 = 0.1003	761.95 ± 0.81	1283.2 ± 0.7	2.17 ± 0.02
313.15 K, x1 = 0.2002	764.54 ± 0.81	1282.8 ± 0.7	2.1 ± 0.02
313.15 K, x1 = 0.2996	767.28 ± 0.81	1282.9 ± 0.8	2.02 ± 0.02
313.15 K, x1 = 0.4192	770.83 ± 0.81	1282.8 ± 0.9	1.94 ± 0.02
313.15 K, x1 = 0.5004	773.42 ± 0.82	1282.9 ± 0.9	1.87 ± 0.02
313.15 K, x1 = 0.603	776.92 ± 0.82	1282.9 ± 1	1.8 ± 0.02
313.15 K, x1 = 0.8003	784.45 ± 0.83	1283.5 ± 1.2	1.65 ± 0.02
313.15 K, x1 = 1	793.4 ± 0.84	1284.2 ± 1.3	1.51 ± 0.02
323.15 K, x1 = 0.1003	755.02 ± 0.81	1247.3 ± 0.7	1.8 ± 0.01
323.15 K, x1 = 0.2002	757.6 ± 0.81	1246.9 ± 0.7	1.75 ± 0.01
323.15 K, x1 = 0.2996	760.32 ± 0.81	1246.9 ± 0.8	1.68 ± 0.01
323.15 K, x1 = 0.4192	763.85 ± 0.81	1246.7 ± 0.9	1.62 ± 0.01
323.15 K, x1 = 0.5004	766.42 ± 0.82	1246.7 ± 0.9	1.57 ± 0.01
323.15 K, x1 = 0.603	769.89 ± 0.82	1246.6 ± 1	1.52 ± 0.02
323.15 K, x1 = 0.8003	777.35 ± 0.83	1246.9 ± 1.2	1.4 ± 0.02
323.15 K, x1 = 1	786.22 ± 0.84	1247.1 ± 1.3	1.29 ± 0.02
333.15 K, x1 = 0.1003	748.09 ± 0.81	1212.3 ± 0.7	1.51 ± 0.01
333.15 K, x1 = 0.2002	750.65 ± 0.81	1211.9 ± 0.7	1.47 ± 0.01
333.15 K, x1 = 0.2996	753.35 ± 0.81	1211.7 ± 0.8	1.42 ± 0.01
333.15 K, x1 = 0.4192	756.86 ± 0.81	1211.5 ± 0.9	1.37 ± 0.01
333.15 K, x1 = 0.5004	759.41 ± 0.82	1211.4 ± 0.9	1.33 ± 0.01
333.15 K, x1 = 0.603	762.86 ± 0.82	1211.2 ± 1	1.29 ± 0.01
333.15 K, x1 = 0.8003	770.24 ± 0.83	1211.1 ± 1.2	1.2 ± 0.01
333.15 K, x1 = 1	779.02 ± 0.84	1211 ± 1.3	1.09 ± 0.01
343.15 K, x1 = 0.1003	741.2 ± 0.8	–	1.29 ± 0.01
343.15 K, x1 = 0.2002	743.7 ± 0.8	–	1.27 ± 0.01
343.15 K, x1 = 0.2996	746.5 ± 0.8	–	1.22 ± 0.01
343.15 K, x1 = 0.4192	749.9 ± 0.8	–	1.18 ± 0.01
343.15 K, x1 = 0.5004	752.4 ± 0.8	–	1.15 ± 0.01
343.15 K, x1 = 0.603	755.9 ± 0.8	–	1.13 ± 0.01
343.15 K, x1 = 0.8003	763.1 ± 0.8	–	1.05 ± 0.01
343.15 K, x1 = 1	771.8 ± 0.8	–	0.964 ± 0.013
353.15 K, x1 = 0.1003	734.2 ± 0.8	–	1.12 ± 0.01
353.15 K, x1 = 0.2002	736.7 ± 0.8	–	1.09 ± 0.01
353.15 K, x1 = 0.2996	739.5 ± 0.8	–	1.06 ± 0.01
353.15 K, x1 = 0.4192	742.9 ± 0.8	–	1.02 ± 0.01
353.15 K, x1 = 0.5004	745.4 ± 0.8	–	1 ± 0.01
353.15 K, x1 = 0.603	748.8 ± 0.8	–	0.971 ± 0.012
353.15 K, x1 = 0.8003	756 ± 0.8	–	0.919 ± 0.013
353.15 K, x1 = 1	764.6 ± 0.8	–	0.847 ± 0.013
363.15 K, x1 = 0.1003	727.3 ± 0.8	–	0.981 ± 0.012
363.15 K, x1 = 0.2002	729.7 ± 0.8	–	0.977 ± 0.012
363.15 K, x1 = 0.2996	732.5 ± 0.8	–	0.931 ± 0.012
363.15 K, x1 = 0.4192	735.9 ± 0.8	–	0.901 ± 0.012
363.15 K, x1 = 0.5004	738.3 ± 0.8	–	0.88 ± 0.012
363.15 K, x1 = 0.603	741.7 ± 0.8	–	0.873 ± 0.012
363.15 K, x1 = 0.8003	748.8 ± 0.8	–	0.817 ± 0.012
363.15 K, x1 = 1	757.3 ± 0.8	–	0.758 ± 0.012
